Laboratory results taken from patent US8163737B2 (Vertex Pharmaceuticals Incorporated, priority 2006, dated 2012).

Target: endogenous CGRP receptor (Homo sapiens, UniProt O60894+Q16602)
Test: CGRP functional antagonism using SK-N-MC-BLA (4C10), β-lactamase transcriptional reporter assay
Assay type: cell-based
Details: SK-N-MC (4C10) cells, inhibition of β-lactamase expression in the presence of 200 pM CGRP
Description: Measuring CGRP Functional Antagonism Using SK-N-MC-BLA (4C10):
CGRP functional antagonism was characterized in a cell based transcriptional assay using a recombinant SK-N-MC line. To introduce the transcriptional reporter system, SK-N-MC cell line was transduced with a retroviral vector containing β-lactamase gene downstream of cAMP responsive promoter. The expression of β-lactamase is triggered by cAMP increase that is a downstream event of activation of endogenous CGRP receptor. Single clones were separated using Fluorescent Activated Cell Sorting (FACS) based on CGRP induced β-lactamase activity. β-lactamase activity was measured using a fluorescence energy transfer (FRET) dye, CCF4. […] To evaluate functional antagonist activity of compounds in SK-N-MC (4C10) line, compounds were evaluated for their inhibition of β-lactamase expression in the presence of CGRP.
SK-N-MC (4C10) was cultured in Minimal Essential Media (MEM) (Invitrogen) supplemented with 1 mM non-essential amino acids solution (Invitrogen), 100 units/ml Penicillin-Streptomycin (Invitrogen), 1 mM sodium pyruvate (Invitrogen) and 10% fetal bovine serum. For the β-lactamase assay, low serum, 1% FBS in MEM was used. 30,000 cells were plated into each wells of poly-D-lysine coated 384-well plate (Becton Dickinson) a day prior to the assay. SK-N-MC (4C10) was preincubated with compounds for 30 min before the addition of 200 pM CGRP. The assay was incubated for 3 hours at 37° C. to allow β-lactamase expression. CCF4 dye was added and incubated for 2 hours at room temperature. […] Curve fitting and IC50 calculation were carried about using MOD3.

Sequence of endogenous CGRP receptor (Q16602 23-461): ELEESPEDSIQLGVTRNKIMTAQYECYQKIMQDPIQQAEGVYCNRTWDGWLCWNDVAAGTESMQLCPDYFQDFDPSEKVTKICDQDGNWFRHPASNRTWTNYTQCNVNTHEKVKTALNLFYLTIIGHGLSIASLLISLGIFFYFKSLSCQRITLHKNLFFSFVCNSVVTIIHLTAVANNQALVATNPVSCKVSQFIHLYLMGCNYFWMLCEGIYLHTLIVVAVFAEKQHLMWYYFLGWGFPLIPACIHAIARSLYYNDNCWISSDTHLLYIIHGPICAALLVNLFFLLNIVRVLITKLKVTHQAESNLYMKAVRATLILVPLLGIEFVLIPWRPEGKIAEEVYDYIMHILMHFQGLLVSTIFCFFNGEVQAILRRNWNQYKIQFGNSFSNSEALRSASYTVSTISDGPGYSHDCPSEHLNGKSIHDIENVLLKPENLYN
Sequence of endogenous CGRP receptor (O60894 27-148): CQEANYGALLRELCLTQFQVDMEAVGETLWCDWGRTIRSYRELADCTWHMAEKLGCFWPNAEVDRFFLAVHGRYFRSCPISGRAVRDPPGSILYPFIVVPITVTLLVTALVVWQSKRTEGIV

SMILES	IC50
CCOCCCN1C(=O)C(CC(=O)N2CCC(N3CCc4ccccc4NC3=O)CC2)SC1c1ccccc1 (stereo not drawn) [Compound 4]	< 1000 nM
CC(C)CCN1C(=O)C(CC(=O)N2CCC(N3Cc4ccccc4NC3=O)CC2)SC1c1ccc(S(C)(=O)=O)cc1 (stereo not drawn) [Compound 5]	1000 to 5000 nM
CC(C)CCN1C(=O)C(CC(=O)N2CCC(N3Cc4ccccc4NC3=O)CC2)SC1CCc1ccccc1 (stereo not drawn) [Compound 6]	< 1000 nM
CC(C)(C)CCN1C(=O)C(CC(=O)N2CCC(N3CCc4ccccc4NC3=O)CC2)SC1c1ccccc1N1CCCCC1 (stereo not drawn) [Compound 7]	< 1000 nM
CC(C)CCN1C(=O)C(CC(=O)N2CCC(N3CCc4ccccc4NC3=O)CC2)SC1[C@@H](C)c1ccccc1 (stereo partly drawn) [Compound 11]	< 1000 nM
CC(C)CCN1C(=O)C(CC(=O)N2CCC(N3CCc4ccccc4NC3=O)CC2)SC1c1cc(C(F)(F)F)ccc1F (stereo not drawn) [Compound 13]	< 1000 nM
COc1ccc(C2SC(CC(=O)N3CCC(N4Cc5ccccc5NC4=O)CC3)C(=O)N2CCC(C)C)cc1F (stereo not drawn) [Compound 18]	1000 to 5000 nM
Cc1cc(C)c(C2SC(CC(=O)N3CCC(N4CCc5ccccc5NC4=O)CC3)C(=O)N2CCC(C)C)c(C)c1 (stereo not drawn) [Compound 21]	< 1000 nM
CN1CCN(c2ccccc2[C@H]2SC(CC(=O)N3CCC(n4c(=O)[nH]c5ccccc54)CC3)C(=O)N2CCC(C)(C)C)CC1 (stereo partly drawn) [Compound 22]	1000 to 5000 nM
CC(C)CCN1C(=O)C(CC(=O)N2CCC(N3CCc4ccccc4NC3=O)CC2)SC1c1cccc(C(F)(F)F)c1F (stereo not drawn) [Compound 23]	< 1000 nM
CC(C)N1C(=O)C(CC(=O)N2CCC(N3CCc4ccccc4NC3=O)CC2)SC1c1ccccc1 (stereo not drawn) [Compound 24]	1000 to 5000 nM
CC(C)(C)CCN1C(=O)C(CC(=O)N2CCC(N3Cc4ccccc4NC3=O)CC2)SC1c1c(F)cccc1F (stereo not drawn) [Compound 25]	< 1000 nM
Cc1c(F)cccc1C1SC(CC(=O)N2CCC(N3CCc4ccccc4NC3=O)CC2)C(=O)N1CCC(C)C (stereo not drawn) [Compound 26]	< 1000 nM
CC(=O)N1CC2(CCN(C(=O)CC3SC(c4ccccc4)N(CCC(C)C)C3=O)CC2)c2cc(C(C)C)ccc21 (stereo not drawn) [Compound 27]	> 5000 nM
CC(C)CCN1C(=O)C(CC(=O)N2CCC3(CC2)C(=O)N(C)c2ccccc23)SC1c1ccccc1 (stereo not drawn) [Compound 29]	> 5000 nM
CC(C)(C)CCN1C(=O)C(CC(=O)N2CCC(N3Cc4ccccc4NC3=O)CC2)SC12CCSCC2 (stereo not drawn) [Compound 31]	< 1000 nM
CC(C)CCN1C(=O)C(CC(=O)N2CCC(N3Cc4ccccc4NC3=O)CC2)SC12CCCCCC2 (stereo not drawn) [Compound 32]	< 1000 nM
CN1CCN(c2ccccc2C2SC(CC(=O)N3CCC(N4CCc5ccccc5NC4=O)CC3)C(=O)N2CCC(C)(C)C)CC1 (stereo not drawn) [Compound 34]	< 1000 nM
O=C(CC1SC(c2ccccc2)N(CC(F)(F)C(F)(F)F)C1=O)N1CCC(N2Cc3ccccc3NC2=O)CC1 (stereo not drawn) [Compound 36]	< 1000 nM
CCCN1C(=O)C(CC(=O)N2CCC(N3CCc4ccccc4NC3=O)CC2)SC1c1ccccc1 (stereo not drawn) [Compound 38]	< 1000 nM
O=C(CC1SC(c2ccccc2)N(Cc2ccncc2)C1=O)N1CCC(N2Cc3ccccc3NC2=O)CC1 (stereo not drawn) [Compound 46]	1000 to 5000 nM

SMILES	IC50
CN1CCN(c2ccccc2[C@H]2SC(CC(=O)N3CCC(n4c(=O)[nH]c5ncccc54)CC3)C(=O)N2CCC(C)(C)C)CC1 (stereo partly drawn) [Compound 47]	< 1000 nM
Cc1cc(C)c(C2SC(CC(=O)N3CCC(N4Cc5ccccc5NC4=O)CC3)C(=O)N2CCC(C)C)c(C)c1 (stereo not drawn) [Compound 51]	< 1000 nM
COC(=O)[C@H](CC1CCCCC1)N1C(=O)C(CC(=O)N2CCC(N3Cc4ccccc4NC3=O)CC2)SC1c1ccccc1 (stereo partly drawn) [Compound 55]	1000 to 5000 nM
CC(C)(C)CCN1C(=O)C(CC(=O)N2CCC(N3CCc4ccccc4NC3=O)CC2)SC12CCCCCC2 (stereo not drawn) [Compound 57]	< 1000 nM
CC(C)CCN1C(=O)C(CC(=O)N2CCC(n3c(=O)[nH]c4ncccc43)CC2)SC1c1ccccc1N1CCN(C)CC1 (stereo not drawn) [Compound 59]	< 1000 nM
CC(C)CCN1C(=O)C(CC(=O)N2CCC(N3CCc4ccccc4NC3=O)CC2)SC1c1ccccc1OCc1ccccc1 (stereo not drawn) [Compound 65]	< 1000 nM
CC(C)CCN1C(=O)C(CC(=O)N2CCC(n3c(=O)[nH]c4ncccc43)CC2)SC1c1ccccc1 (stereo not drawn) [Compound 69]	< 1000 nM
CCCCCCCC1SC(CC(=O)N2CCC(N3Cc4ccccc4NC3=O)CC2)C(=O)N1CCC(C)C (stereo not drawn) [Compound 71]	> 5000 nM
Cc1ccc(C2SC(CC(=O)N3CCC(N4CCc5ccccc5NC4=O)CC3)C(=O)N2CCC(C)C)c(C)c1 (stereo not drawn) [Compound 73]	< 1000 nM
CCCCCCCC1SC(CC(=O)N2CCC(N3CCc4ccccc4NC3=O)CC2)C(=O)N1CCC(C)C (stereo not drawn) [Compound 74]	1000 to 5000 nM
CC(C)CCN1C(=O)C(CC(=O)N2CCC(N3Cc4ccccc4NC3=O)CC2)SC1C(C)(C)C (stereo not drawn) [Compound 75]	1000 to 5000 nM
CN1CCCC1CCN1C(=O)C(CC(=O)N2CCC(N3Cc4ccccc4NC3=O)CC2)SC1c1ccccc1 (stereo not drawn) [Compound 77]	> 5000 nM
CCN(CC)CCN1C(=O)C(CC(=O)N2CCC(N3Cc4ccccc4NC3=O)CC2)SC1c1ccccc1 (stereo not drawn) [Compound 82]	1000 to 5000 nM
O=C(CC1SC(c2ccccc2)N(CC2CCCO2)C1=O)N1CCC(N2CCc3ccccc3NC2=O)CC1 (stereo not drawn) [Compound 83]	< 1000 nM
CN1CCN(c2ccccc2C2SC(CC(=O)N3CCC(CO)CC3)C(=O)N2CCC(C)(C)C)CC1 (stereo not drawn) [Compound 85]	> 5000 nM
CC(C)CCN1C(=O)C(CC(=O)N2CCC(N3Cc4ccccc4NC3=O)CC2)SC12CCCCC2 (stereo not drawn) [Compound 86]	1000 to 5000 nM
CC(C)CCN1C(=O)C(CC(=O)N2CCC(N3CCc4ccccc4NC3=O)CC2)SC1c1c(Cl)cccc1Cl (stereo not drawn) [Compound 89]	< 1000 nM
CC(C)CCN1C(=O)C(CC(=O)N2CCC(N3CCc4ccccc4NC3=O)CC2)SC12CCCCCC2 (stereo not drawn) [Compound 91]	< 1000 nM
O=C(CC1SC(c2cccc(F)c2F)N(CC2CCCCC2)C1=O)N1CCC(N2Cc3ccccc3NC2=O)CC1 (stereo not drawn) [Compound 92]	< 1000 nM
CC(C)(C)CCN1C(=O)C(CC(=O)N2CCC(N3Cc4ccccc4NC3=O)CC2)SC1c1cccc2cc[nH]c12 (stereo not drawn) [Compound 94]	> 5000 nM
CC(C)CCN1C(=O)C(CC(=O)N2CCC(N3Cc4ccccc4NC3=O)CC2)SC1C1CCCCC1 (stereo not drawn) [Compound 95]	< 1000 nM

SMILES	IC50
C=CCN1C(=O)C(CC(=O)N2CCC(N3CCc4ccccc4NC3=O)CC2)SC1c1ccccc1 (stereo not drawn) [Compound 96]	1000 to 5000 nM
CN1CCN(c2ccccc2[C@H]2SC(CC(=O)N3CCCCC3)C(=O)N2CCC(C)(C)C)CC1 (stereo partly drawn) [Compound 97]	> 5000 nM
CC(C)CCN1C(=O)C(CC(=O)N2CCC(N3CCc4ccccc4NC3=O)CC2)SC1Cc1ccccc1 (stereo not drawn) [Compound 98]	1000 to 5000 nM
CC1=CCCC(C)C1C1SC(CC(=O)N2CCC(N3Cc4ccccc4NC3=O)CC2)C(=O)N1CCC(C)C (stereo not drawn) [Compound 100]	< 1000 nM
CC(C)CCN1C(=O)C(CC(=O)N2CCC(N3Cc4ccccc4NC3=O)CC2)SC1C(C)c1ccccc1 (stereo not drawn) [Compound 101]	> 5000 nM
CCCOc1ccc(C2SC(CC(=O)N3CCC(N4Cc5ccccc5NC4=O)CC3)C(=O)N2CCC(C)C)cc1 (stereo not drawn) [Compound 103]	> 5000 nM
O=C(CC1SC(c2ccccc2)N(Cc2ccncc2)C1=O)N1CCC(n2c(=O)[nH]c3ccccc32)CC1 (stereo not drawn) [Compound 108]	> 5000 nM
CC(C)CCN1C(=O)C(CC(=O)N2CCC3(CC2)C(=O)Nc2ccccc23)SC1c1ccccc1 (stereo not drawn) [Compound 111]	> 5000 nM
CC(C)CCN1C(=O)C(CC(=O)N2CCC(n3cc(-c4ccccc4)[nH]c3=O)CC2)SC1c1ccc(Cl)cc1 (stereo not drawn) [Compound 112]	> 5000 nM
CC(C)CCN1C(=O)C(CC(=O)N2CCC(N3Cc4ccccc4NC3=O)CC2)SC1c1ccccc1N(C)C (stereo not drawn) [Compound 121]	< 1000 nM
Cc1cccc(C)c1C1SC(CC(=O)N2CCC(N3CCc4ccccc4NC3=O)CC2)C(=O)N1CCC(C)C (stereo not drawn) [Compound 123]	< 1000 nM
CC(C)CCN1C(=O)C(CC(=O)N2CCC(N3Cc4ccccc4NC3=O)CC2)SC1c1ccc(N(C)C)cc1 (stereo not drawn) [Compound 124]	1000 to 5000 nM
CC(C)CCN1C(=O)C(CC(=O)N2CCC(N3CCc4ccccc4NC3=O)CC2)SC1c1cccnc1N1CCOCC1 (stereo not drawn) [Compound 125]	< 1000 nM
O=C(CC1SC(c2ccccc2F)N(CC2CCCCC2)C1=O)N1CCC(N2Cc3ccccc3NC2=O)CC1 (stereo not drawn) [Compound 126]	< 1000 nM
CC(C)(C)CCN1C(=O)C(CC(=O)N2CCC(N3CCc4ccccc4NC3=O)CC2)SC1c1cccc2cc[nH]c12 (stereo not drawn) [Compound 130]	1000 to 5000 nM
CC(=O)N1CC2(CCN(C(=O)CC3SC(c4ccccc4)N(CCC(C)C)C3=O)CC2)c2cc(C(F)(F)F)ccc21 (stereo not drawn) [Compound 131]	> 5000 nM
CN1C(=O)C(CC(=O)N2CCC(N3CCc4ccccc4NC3=O)CC2)SC1c1ccccc1 (stereo not drawn) [Compound 132]	1000 to 5000 nM
Cc1cccc(C)c1C1SC(CC(=O)N2CCC(N3Cc4ccccc4NC3=O)CC2)C(=O)N1CCC(C)C (stereo not drawn) [Compound 134]	< 1000 nM
O=C(CC1SC(c2ccc(F)cc2F)N(CC2CCCCC2)C1=O)N1CCC(N2CCc3ccccc3NC2=O)CC1 (stereo not drawn) [Compound 135]	< 1000 nM
CC(C)CCN1C(=O)C(CC(=O)N2CCC(N3Cc4ccccc4NC3=O)CC2)SC1c1cc(C(F)(F)F)ccc1F (stereo not drawn) [Compound 136]	< 1000 nM
O=C(CC1SC(c2ccc(F)cc2F)N(CC2CCCCC2)C1=O)N1CCC(N2Cc3ccccc3NC2=O)CC1 (stereo not drawn) [Compound 137]	< 1000 nM
